The values that follow come from ChEMBL document CHEMBL3994632, “Selenoesters and selenoanhydrides as novel multidrug resistance reversing agents: A confirmation study in a colon cancer MDR cell line” (Bioorg Med Chem Lett, 2017).

What is called IC50 is the concentration at which inhibition is half-maximal.

Data set [1] is described as follows: Selectivity index, ratio of IC50 for human MRC5 cells to IC50 for multidrug resistant human COLO320 cells. The format is functional.
The subject of data set [2] is COLO 320. The experiment in a line: Cytotoxicity against multidrug resistant human COLO320 cells after 24 hrs by MTT assay. Type of data set: functional, cell-based. Conditions: COLO 320, 24 h.
A further data set deals with MRC5. The experiment in a line: Cytotoxicity against human MRC5 cells after 24 hrs by MTT assay. To be noted: MRC5, 24 h. Type of data set: ADME, cell-based. Background: Formazan colour is commonly taken as a measure of viable cells.
Data set [3] concerns COLO 320. The experiment in a line: Induction of apoptosis in human COLO320 cells at 2 uM after 24 hrs by Annexin V-FITC/propidium iodide staining based flow cytometry relative to M627. The format is functional. Background: In flow cytometry, cells or beads pass a laser one at a time.
The nature of data set [4]: Selectivity index, ratio of IC50 for human MRC5 cells to IC50 for doxorubicin-sensitive human COLO205 cells. Type of data set: functional.
The test system of a further data set is COLO 205. The data set can be described thus: Cytotoxicity against doxorubicin-sensitive human COLO205 cells after 24 hrs by MTT assay. Type of data set: functional, cell-based. Conditions: COLO 205, 24 h.
Data set [5] can be described thus: Selectivity index, ratio of IC50 for doxorubicin-sensitive human COLO205 cells to IC50 for multidrug resistant human COLO320 cells. The format is functional.
For data set [6], the target named is ATP-dependent translocase ABCB1 (Homo sapiens, UniProt P08183). The data set can be described thus: Inhibition of human MDR1 transfected in mouse T lymphoma cells assessed as rhodamine-123 accumulation measured as fluorescence activity ratio quotient at 2 uM preincubated for 10 mins followed by rhodamine-123 addition measured after 20 mins by flow cytometry relative to verapamil. Type of data set: cell-based. Details: scale not given: the % may be the effect or the level left.
ATP-dependent translocase ABCB1, sequence (P08183 whole entry): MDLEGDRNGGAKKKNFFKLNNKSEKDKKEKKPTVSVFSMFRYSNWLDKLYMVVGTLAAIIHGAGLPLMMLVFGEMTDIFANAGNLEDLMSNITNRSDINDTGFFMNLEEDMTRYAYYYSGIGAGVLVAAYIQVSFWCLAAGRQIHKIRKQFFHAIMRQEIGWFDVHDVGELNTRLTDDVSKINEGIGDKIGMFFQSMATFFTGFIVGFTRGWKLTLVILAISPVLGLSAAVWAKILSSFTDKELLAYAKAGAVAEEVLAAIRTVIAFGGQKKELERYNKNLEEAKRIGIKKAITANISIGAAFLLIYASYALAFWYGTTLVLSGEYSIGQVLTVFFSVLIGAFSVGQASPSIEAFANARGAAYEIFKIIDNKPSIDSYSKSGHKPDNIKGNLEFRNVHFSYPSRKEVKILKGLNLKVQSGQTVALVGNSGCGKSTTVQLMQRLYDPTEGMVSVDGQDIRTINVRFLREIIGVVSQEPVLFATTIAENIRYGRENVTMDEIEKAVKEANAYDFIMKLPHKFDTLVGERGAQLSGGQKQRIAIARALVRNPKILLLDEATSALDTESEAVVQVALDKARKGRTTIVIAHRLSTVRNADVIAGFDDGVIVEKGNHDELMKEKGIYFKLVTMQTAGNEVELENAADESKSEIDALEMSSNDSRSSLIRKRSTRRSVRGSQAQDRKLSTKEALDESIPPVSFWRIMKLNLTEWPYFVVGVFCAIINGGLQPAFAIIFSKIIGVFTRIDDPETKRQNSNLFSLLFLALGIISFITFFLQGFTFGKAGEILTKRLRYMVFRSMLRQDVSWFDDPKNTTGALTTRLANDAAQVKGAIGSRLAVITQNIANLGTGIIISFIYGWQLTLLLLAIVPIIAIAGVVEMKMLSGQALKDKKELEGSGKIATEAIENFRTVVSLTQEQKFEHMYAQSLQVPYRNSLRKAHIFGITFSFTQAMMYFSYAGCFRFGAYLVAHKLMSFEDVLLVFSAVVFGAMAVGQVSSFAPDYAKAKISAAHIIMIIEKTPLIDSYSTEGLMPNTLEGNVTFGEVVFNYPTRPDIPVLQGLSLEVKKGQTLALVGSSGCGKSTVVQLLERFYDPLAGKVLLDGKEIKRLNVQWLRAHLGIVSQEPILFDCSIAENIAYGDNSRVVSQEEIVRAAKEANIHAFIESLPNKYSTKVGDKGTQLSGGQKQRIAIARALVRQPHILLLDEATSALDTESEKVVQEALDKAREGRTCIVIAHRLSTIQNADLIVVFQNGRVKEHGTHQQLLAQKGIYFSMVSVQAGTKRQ

Data set [7] has as its system COLO 320. The experiment in a line: Induction of apoptosis in human COLO320 cells assessed as cell death at 20 uM after 24 hrs by Annexin V-FITC/propidium iodide staining based flow cytometry (reference value: 4.75%). Type of data set: functional.
Data set [8] concerns COLO 320. The experiment in a line: Induction of apoptosis in human COLO320 cells assessed as early apoptotic cells at 20 uM after 24 hrs by Annexin V-FITC/propidium iodide staining based flow cytometry (reference value: 20.3%). The format is functional.
The subject of data set [9] is COLO 320. The data set can be described thus: Induction of apoptosis in human COLO320 cells assessed as late apoptotic/necrotic cells at 20 uM after 24 hrs by Annexin V-FITC/propidium iodide staining based flow cytometry (reference value: 9.93%). Type of data set: functional.

Regarding `NC(=O)C[Se]C(=O)c1ccccc1`, the “Ratio IC50” value in [1] and in [4] was “<=0.77” each time. In addition, the IC50 was > 100 µM in the data set with COLO 320 [2], 76.6 µM with MRC5 and > 100 µM in the data set on COLO 205. Moreover, the Activity in the data set on COLO 320 [3] worked out at 37.3%.

`O=C1[Se]C(=O)c2ccccc21`: the “Ratio IC50” value in data set [5] and in data set [1] was “>=1.6” each time. Further, the IC50 was 63.9 µM in the data set on COLO 320 [2], > 100 µM with MRC5 and > 100 µM in the data set with COLO 205. In the data set with COLO 320 [3], the Activity stood at 88.4%.

On to `COC(=O)C[Se]C(=O)c1ccc(Cl)cc1`, for which the “Ratio IC50” value in data set [1] and in [4] was “<=0.33” each time. Further, the IC50 in the data set on COLO 320 [2] is > 100 µM; in the data set on MRC5 it was 33.4 µM; in the data set with COLO 205 it was > 100 µM. For the same compound, the Activity with COLO 320 [3] was 43.4%.

For `O=C(C[Se]C(=O)c1ccccc1)Oc1ccccc1`, the “Ratio IC50” value in data set [5] and in [1] was “>=1.9” throughout. The results for the IC50 in the data set on COLO 320 [2], with MRC5 and in the data set on COLO 205 were 53.7 µM, > 100 µM and > 100 µM, respectively. Besides, in the data set on COLO 320 [3], the Activity is 43%.

Take `CC(=O)C[Se]C(=O)c1ccc(Cl)cc1`: the “Ratio IC50” value in data set [5] is reported as 10; in data set [1], 9.7; in data set [4], 0.98. The IC50 in the data set with COLO 320 [2] was 0.55 µM; with MRC5, 5.35 µM; in the data set on COLO 205, 5.48 µM. Moreover, in the data set on COLO 320 [3], the Activity was determined as 87.7%.

Take `CC(C)(C)C(=O)C[Se]C(=O)c1ccc(Cl)cc1`: the “Ratio IC50” value in data set [5] was 1.7; in data set [1] it was 8.4; in data set [4], 5. The half-maximal inhibitory concentration (IC50) was found to be 0.96 µM with COLO 320 [2], 8.1 µM in the data set with MRC5 and 1.63 µM in the data set with COLO 205. Moreover, the Activity in data set [6] was 34 to 217%; in the data set with COLO 320 [3] it was 80.3%.

For the compound `COc1cc(OC)cc(C(=O)[Se]CC(=O)C(C)(C)C)c1`, the “Ratio IC50” value in [5] came out at 3.4; in [1], 14.4; in [4], 4.2. In addition, the IC50 in the data set on COLO 320 [2] amounted to 0.35 µM; with MRC5 it was 5.04 µM; in the data set with COLO 205, 1.19 µM. For the same compound, the Activity in data set [6] was 46 to 228%; in the data set on COLO 320 [3], 88.7%.

Regarding `C[Se]C(=O)c1ccc(C(=O)[Se]C)cc1`, the “Ratio IC50” value in data set [1] and in data set [4] was “<=0.62” in each case. Moreover, the IC50 with COLO 320 [2] was > 100 µM; in the data set with MRC5, 61.5 µM; in the data set on COLO 205, > 100 µM. In the data set with COLO 320 [3], the Activity came to 36.9%.

Turning to `C[Se]C(=O)c1cccc(C(=O)[Se]C)c1`, the “Ratio IC50” value is “>=8” in [5], 2.3 in [1] and “<=0.28” in data set [4]. The IC50 is 12.5 µM in the data set on COLO 320 [2], 28.4 µM with MRC5 and > 100 µM with COLO 205. The same compound yielded an Activity with COLO 320 [3] of 36.3%.

In the case of `C[Se]C(=O)c1cccc(C(=O)[Se]C)n1`, the “Ratio IC50” value in [1] and in [4] was “<=0.18” in each case. Further, the IC50 was > 100 µM in the data set on COLO 320 [2], 17.9 µM in the data set with MRC5 and > 100 µM in the data set on COLO 205. In the data set on COLO 320 [3], this compound had an Activity of 36.9%.

With `C[Se]C(=O)c1ccc(C(=O)[Se]C)s1`, the “Ratio IC50” value in data set [1] and in [4] was “<=0.04” throughout. Also, the results for the IC50 with COLO 320 [2], with MRC5 and in the data set with COLO 205 were > 100 µM, 4.26 µM and > 100 µM, respectively. The compound also registered an Activity in the data set with COLO 320 [3] of 30.4%.

`N.N#CS`: the IC50 with COLO 320 [2], with MRC5 and in the data set on COLO 205 was > 100 µM throughout. In the data set with COLO 320 [3], this compound came in with an Activity of 9.55%.

For the compound `c1ccc2c(c1)Nc1c(ccc3ccccc13)S2`, the Activity was 2.91% in the data set with COLO 320 [7], 58.5% with COLO 320 [8] and 22% in the data set on COLO 320 [9].

For `N#C[O-].[K+]`, the IC50 in the data set with COLO 320 [2], with MRC5 and with COLO 205 was > 100 µM throughout. The compound further returned an Activity in the data set on COLO 320 [3] of 7.28%.

For the compound `N#C[Se-].[K+]`, the half-maximal inhibitory concentration (IC50) with COLO 320 [2], in the data set with MRC5 and with COLO 205 was > 100 µM throughout. In addition, the Activity with COLO 320 [3] is 6.98%.

As for `O=C1OC(=O)c2ccccc21` [PHTHALIC ANHYDRIDE], the IC50 with COLO 320 [2], in the data set with MRC5 and with COLO 205 was > 100 µM in each case. For the same compound, the Activity in the data set on COLO 320 [3] was determined as 6.06%.
